These results are taken from PubChem BioAssay (NCI).

Molecules are shown by their SMILES.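 Values below derive from 48-hour exposures of cells grown in 96-well plates, with endpoints linearly interpolated between the two concentrations bracketing the appropriate inhibition level. GI50 is the concentration that inhibits growth by half. At the TGI there is no net growth.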

Holding throughout (assay): NCI tumour cell line growth inhibition, 48 h
Experiment [1] has as its system MALME-3M melanoma.
The test system of experiment [2] is SK-MEL-5 melanoma.
Experiment [3] concerns UO-31 renal.
Experiment [4] concerns HL-60(TB) leukemia.
The subject of experiment [5] is NCI-H23 lung.
Experiment [6] deals with SK-MEL-2 melanoma.
For experiment [7], the system named is SNB-19 CNS.
For experiment [8], the system named is OVCAR-3 ovarian.
For experiment [9], the system named is HOP-92 NSCLC.
For experiment [10], the system named is HOP-62 NSCLC.

Take `NC1=C(Cl)C(=O)c2ccc(S(N)(=O)=O)cc2C1=O`: the GI50 in [1] was 0.0426 µM; in experiment [2] it was 0.0304 µM; in [3] it was 0.211 µM; in [4] it was 0.366 µM; in experiment [5] it was 0.176 µM; in experiment [6] it was 0.192 µM. For the same compound, the GI50 in experiment [7] is 0.305 µM; in experiment [8], 0.198 µM; in [9], 2.04 µM; in [10] it was 0.251 µM. Further, the TGI in [1] was 0.137 µM; in experiment [2] it was 0.0963 µM; in experiment [3], 0.564 µM; in experiment [4], 1.18 µM; in experiment [5] it was 0.517 µM; in [6], 0.487 µM. Besides, the TGI in [7] amounted to 1.05 µM; in experiment [8], 0.454 µM; in [9] it was 3.73 µM; in [10] it was 0.596 µM.

`O=C(O)C1NCCc2c1[nH]c1ccccc21` (configuration not stated): the GI50 in experiment [1], in [2], in experiment [4], in experiment [5], in experiment [7] and in experiment [8] was more than 100 µM each time. Further, in experiment [9], the GI50 was more than 100 µM. The TGI in [1], in experiment [2], in experiment [3], in experiment [4], in [5] and in experiment [6] was more than 100 µM throughout. Also, the TGI was more than 100 µM in [7], more than 100 µM in experiment [8], more than 100 µM in experiment [9] and more than 10 µM in [10].

`CN(C)CCCN(c1nc(C(Cl)(Cl)Cl)ns1)c1nc(C(Cl)(Cl)Cl)ns1`: the GI50 in experiment [1] was 2.18 µM; in experiment [2], 1.6 µM; in [3], 1.47 µM; in [4], 1.52 µM; in [5] it was 2.04 µM; in experiment [6], 1.84 µM. The GI50 in experiment [7] is 2.53 µM; in [8], 2.01 µM; in experiment [9], 1.64 µM; in experiment [10], 1.64 µM. Also, the TGI in experiment [1] was found to be 5.01 µM; in experiment [2], 2.95 µM; in experiment [3] it was 3.08 µM; in [4], 3.43 µM; in [5] it was 5.55 µM; in [6], 3.5 µM. Also, the TGI in experiment [7] came to 7.3 µM; in [8] it was 4.09 µM; in experiment [9] it was 5.33 µM; in experiment [10] it was 3.07 µM.

Turning to `O=c1c2ccccc2nc(-c2ccc(Br)cc2)n1NC1OC(CO)C(O)C(O)C1O` (configuration not stated), the TGI in experiment [1], in experiment [2], in experiment [3], in experiment [4], in experiment [5] and in [6] was more than 100 µM throughout. Moreover, the TGI in [7], in experiment [8], in experiment [9] and in [10] was more than 100 µM in each case.

Turning to `C/C=C/C=N/N(C(=O)c1cc([N+](=O)[O-])cc([N+](=O)[O-])c1)C1=NC(c2ccccc2)C(c2ccccc2)=NN1` (configuration not stated), the TGI in experiment [1] is 75.2 µM; in experiment [2] it was 81.8 µM; in [3], more than 100 µM; in [4], 55.6 µM; in experiment [5] it was 77.9 µM; in [6], more than 100 µM. Further, the TGI was more than 100 µM in experiment [7], 72 µM in experiment [8], 62.2 µM in experiment [9] and more than 100 µM in experiment [10].

In the case of `COc1ccc(-c2cnc3ccnn3c2-c2cc(OC)c(OC)c(OC)c2)cc1`, the GI50 was 5.41 µM in [1]; 4.53 µM in [2]; 4.25 µM in experiment [3]; 2.3 µM in [4]; 8.29 µM in experiment [5]; 3.94 µM in experiment [6]. Further, the GI50 is 5.16 µM in experiment [7], 2.51 µM in experiment [8], more than 100 µM in experiment [9] and 7.49 µM in experiment [10]. In addition, the TGI is more than 100 µM in experiment [1]; more than 100 µM in experiment [2]; more than 100 µM in [3]; 7.16 µM in [4]; more than 100 µM in experiment [5]; more than 100 µM in [6]. In addition, the TGI in [7] was more than 100 µM; in experiment [8] it was 7.91 µM; in experiment [9] it was more than 100 µM; in experiment [10], more than 100 µM.

For `CC(=O)OCc1cc(OC(C)=O)cnc1COC(C)=O`, the TGI in experiment [1], in experiment [2], in [3], in [4], in experiment [5] and in experiment [6] was more than 100 µM each time. Besides, the TGI in experiment [7], in experiment [8], in experiment [9] and in experiment [10] was more than 100 µM in each case.

Turning to `CC(C)NCC(O)COC(=O)c1cccs1` (configuration not stated), the TGI in experiment [1], in [2], in experiment [3], in [4], in experiment [5] and in experiment [6] was more than 100 µM throughout. For the same compound, the TGI in experiment [7], in [8], in experiment [9] and in experiment [10] was more than 100 µM throughout.

On to `c1cc(OCCN2CCCCCC2)ccc1CNc1ccc2nc(CCC3CCCCC3)[nH]c2c1`, for which the GI50 in experiment [1] is 1.64 µM; in [2], 1.74 µM; in experiment [3], 1.37 µM; in [4], 1.76 µM; in experiment [5], 2.36 µM; in experiment [6], 1.88 µM. In addition, the GI50 in experiment [7] is 3.05 µM; in [8] it was 1.89 µM; in [9] it was 0.836 µM; in [10], 1.85 µM. Further, the TGI in experiment [1] turned out to be 3.1 µM; in [2] it was 3.17 µM; in experiment [3] it was 2.72 µM; in experiment [4] it was 3.8 µM; in [5], 6.62 µM; in [6], 3.63 µM. In addition, the TGI in experiment [7] is 11.4 µM; in experiment [8], 4.25 µM; in experiment [9], 3.09 µM; in experiment [10], 3.81 µM.
